Measured values reported in the NIST ThermoML archive (doi:10.1021/je500513b).
± gives the expanded uncertainty stated by the source.

Assay: mn = molality of the nth substance listed, in mol/kg
Conditions: for surface tension liquid-gas: Pendant drop shape; for electrical conductivity: 100 kPa, Liquid, Mettler Toledo inLab 710

O [water] + CCCCCCCCCCCC[N+](C)(C)CCCCCC[N+](C)(C)CCCCCCCCCCCC.[Br-].[Br-]
Conditions	surface tension liquid-gas [mN/m]
298.15 K, m2 = 0	71.98 ± 2.2

CCCCCCCCCCCC[N+](C)(C)CCCC[N+](C)(C)CCCCCCCCCCCC.[Br-].[Br-] + O
Conditions	electrical conductivity [S/m]	surface tension liquid-gas [mN/m]
298.15 K, m1 = 0.0001	–	60.26 ± 1.8
298.15 K, m1 = 0.0002	–	54.58 ± 0.98
298.15 K, m1 = 0.0004	–	47.36 ± 0.75
298.15 K, m1 = 0.0006	–	42.42 ± 0.62
298.15 K, m1 = 0.0007	–	40.35 ± 0.53
298.15 K, m1 = 0.0008	–	38.82 ± 0.47
298.15 K, m1 = 0.00085	–	38.23 ± 0.61
298.15 K, m1 = 0.0009	–	36.43 ± 0.46
298.15 K, m1 = 0.001	–	35.92 ± 0.37
298.15 K, m1 = 0.0011	–	35.45 ± 0.36
298.15 K, m1 = 0.0012	–	35.19 ± 0.35
298.15 K, m1 = 0.0015	–	35.13 ± 0.35
298.15 K, m1 = 0.002	–	35.1 ± 0.35
298.15 K, m1 = 0.56	1.13 ± 0.01	–
298.15 K, m1 = 0.59	1.2 ± 0.01	–
298.15 K, m1 = 0.63	1.28 ± 0.01	–
298.15 K, m1 = 0.67	1.36 ± 0.01	–
298.15 K, m1 = 0.7	1.42 ± 0.02	–
298.15 K, m1 = 0.74	1.5 ± 0.02	–
298.15 K, m1 = 0.78	1.57 ± 0.02	–
298.15 K, m1 = 0.83	1.66 ± 0.02	–
298.15 K, m1 = 0.87	1.73 ± 0.02	–
298.15 K, m1 = 0.91	1.79 ± 0.02	–
298.15 K, m1 = 0.95	1.86 ± 0.02	–
298.15 K, m1 = 1	1.93 ± 0.02	–
298.15 K, m1 = 1.05	2 ± 0.02	–
298.15 K, m1 = 1.11	2.06 ± 0.02	–
298.15 K, m1 = 1.18	2.13 ± 0.02	–
298.15 K, m1 = 1.25	2.2 ± 0.02	–
298.15 K, m1 = 1.33	2.25 ± 0.02	–
298.15 K, m1 = 1.43	2.32 ± 0.02	–
298.15 K, m1 = 1.54	2.39 ± 0.02	–
298.15 K, m1 = 1.67	2.46 ± 0.03	–
298.15 K, m1 = 1.82	2.53 ± 0.03	–
298.15 K, m1 = 2	2.63 ± 0.03	–
303.15 K, m1 = 0.57	1.32 ± 0.01	–
303.15 K, m1 = 0.63	1.43 ± 0.02	–
303.15 K, m1 = 0.67	1.53 ± 0.02	–
303.15 K, m1 = 0.7	1.61 ± 0.02	–
303.15 K, m1 = 0.74	1.69 ± 0.02	–
303.15 K, m1 = 0.78	1.78 ± 0.02	–
303.15 K, m1 = 0.83	1.86 ± 0.02	–
303.15 K, m1 = 0.87	1.93 ± 0.02	–
303.15 K, m1 = 0.91	2.01 ± 0.02	–
303.15 K, m1 = 0.95	2.1 ± 0.02	–
303.15 K, m1 = 1	2.18 ± 0.02	–
303.15 K, m1 = 1.05	2.25 ± 0.02	–
303.15 K, m1 = 1.11	2.34 ± 0.02	–
303.15 K, m1 = 1.18	2.41 ± 0.02	–
303.15 K, m1 = 1.25	2.47 ± 0.03	–
303.15 K, m1 = 1.33	2.56 ± 0.03	–
303.15 K, m1 = 1.43	2.63 ± 0.03	–
303.15 K, m1 = 1.54	2.72 ± 0.03	–
303.15 K, m1 = 1.67	2.8 ± 0.03	–
303.15 K, m1 = 1.74	2.84 ± 0.03	–
303.15 K, m1 = 2	2.99 ± 0.03	–
308.15 K, m1 = 0.56	1.42 ± 0.02	–
308.15 K, m1 = 0.59	1.5 ± 0.02	–
308.15 K, m1 = 0.63	1.59 ± 0.02	–
308.15 K, m1 = 0.67	1.69 ± 0.02	–
308.15 K, m1 = 0.7	1.76 ± 0.02	–
308.15 K, m1 = 0.74	1.85 ± 0.02	–
308.15 K, m1 = 0.78	1.95 ± 0.02	–
308.15 K, m1 = 0.83	2.06 ± 0.02	–
308.15 K, m1 = 0.87	2.14 ± 0.02	–
308.15 K, m1 = 0.91	2.22 ± 0.02	–
308.15 K, m1 = 0.95	2.32 ± 0.02	–
308.15 K, m1 = 1	2.41 ± 0.02	–
308.15 K, m1 = 1.05	2.51 ± 0.03	–
308.15 K, m1 = 1.11	2.62 ± 0.03	–
308.15 K, m1 = 1.18	2.71 ± 0.03	–
308.15 K, m1 = 1.25	2.8 ± 0.03	–
308.15 K, m1 = 1.33	2.9 ± 0.03	–
308.15 K, m1 = 1.43	2.98 ± 0.03	–
308.15 K, m1 = 1.54	3.08 ± 0.03	–
308.15 K, m1 = 1.67	3.16 ± 0.03	–
308.15 K, m1 = 1.82	3.27 ± 0.03	–
308.15 K, m1 = 2	3.39 ± 0.03	–
313.15 K, m1 = 0.62	1.66 ± 0.02	–
313.15 K, m1 = 0.66	1.78 ± 0.02	–
313.15 K, m1 = 0.7	1.91 ± 0.02	–
313.15 K, m1 = 0.74	2 ± 0.02	–
313.15 K, m1 = 0.78	2.12 ± 0.02	–
313.15 K, m1 = 0.83	2.24 ± 0.02	–
313.15 K, m1 = 0.89	2.38 ± 0.02	–
313.15 K, m1 = 0.95	2.54 ± 0.03	–
313.15 K, m1 = 1	2.64 ± 0.03	–
313.15 K, m1 = 1.05	2.76 ± 0.03	–
313.15 K, m1 = 1.11	2.87 ± 0.03	–
313.15 K, m1 = 1.18	3.01 ± 0.03	–
313.15 K, m1 = 1.25	3.13 ± 0.03	–
313.15 K, m1 = 1.33	3.24 ± 0.03	–
313.15 K, m1 = 1.43	3.34 ± 0.03	–
313.15 K, m1 = 1.54	3.46 ± 0.04	–
313.15 K, m1 = 1.67	3.58 ± 0.04	–
313.15 K, m1 = 1.74	3.64 ± 0.04	–
313.15 K, m1 = 1.82	3.7 ± 0.04	–
313.15 K, m1 = 1.9	3.77 ± 0.04	–
313.15 K, m1 = 2	3.84 ± 0.04	–
318.15 K, m1 = 0.61	1.79 ± 0.02	–
318.15 K, m1 = 0.65	1.91 ± 0.02	–
318.15 K, m1 = 0.69	2.05 ± 0.02	–
318.15 K, m1 = 0.74	2.19 ± 0.02	–
318.15 K, m1 = 0.78	2.33 ± 0.02	–
318.15 K, m1 = 0.83	2.45 ± 0.03	–
318.15 K, m1 = 0.89	2.61 ± 0.03	–
318.15 K, m1 = 0.95	2.78 ± 0.03	–
318.15 K, m1 = 1	2.9 ± 0.03	–
318.15 K, m1 = 1.05	3.04 ± 0.03	–
318.15 K, m1 = 1.11	3.18 ± 0.03	–
318.15 K, m1 = 1.18	3.33 ± 0.03	–
318.15 K, m1 = 1.25	3.47 ± 0.04	–
318.15 K, m1 = 1.33	3.61 ± 0.04	–
318.15 K, m1 = 1.43	3.76 ± 0.04	–
318.15 K, m1 = 1.54	3.91 ± 0.04	–
318.15 K, m1 = 1.67	4.04 ± 0.04	–
318.15 K, m1 = 1.74	4.11 ± 0.04	–
318.15 K, m1 = 1.82	4.19 ± 0.04	–
318.15 K, m1 = 1.9	4.26 ± 0.04	–
318.15 K, m1 = 2	4.32 ± 0.04	–
323.15 K, m1 = 0.57	1.86 ± 0.02	–
323.15 K, m1 = 0.61	1.97 ± 0.02	–
323.15 K, m1 = 0.65	2.09 ± 0.02	–
323.15 K, m1 = 0.69	2.24 ± 0.02	–
323.15 K, m1 = 0.74	2.4 ± 0.02	–
323.15 K, m1 = 0.78	2.55 ± 0.03	–
323.15 K, m1 = 0.83	2.72 ± 0.03	–
323.15 K, m1 = 0.89	2.87 ± 0.03	–
323.15 K, m1 = 0.95	3.03 ± 0.03	–
323.15 K, m1 = 1	3.16 ± 0.03	–
323.15 K, m1 = 1.05	3.31 ± 0.03	–
323.15 K, m1 = 1.11	3.47 ± 0.04	–
323.15 K, m1 = 1.18	3.66 ± 0.04	–
323.15 K, m1 = 1.25	3.84 ± 0.04	–
323.15 K, m1 = 1.33	4.03 ± 0.04	–
323.15 K, m1 = 1.43	4.21 ± 0.04	–
323.15 K, m1 = 1.54	4.38 ± 0.04	–
323.15 K, m1 = 1.6	4.48 ± 0.05	–
323.15 K, m1 = 1.67	4.57 ± 0.05	–
323.15 K, m1 = 1.74	4.65 ± 0.05	–
323.15 K, m1 = 1.82	4.73 ± 0.05	–
323.15 K, m1 = 1.9	4.81 ± 0.05	–
323.15 K, m1 = 2	4.89 ± 0.05	–

O [water] + CCCCCCCCCCCC[N+](C)(C)CCCC[N+](C)(C)CCCCCCCCCCCC.[Br-].[Br-]
Conditions	surface tension liquid-gas [mN/m]
298.15 K, m2 = 0	71.98 ± 2.4
